For 1 compound, IC50 results are on record in patent publication US20070149593A1 (Alcon, Inc., priority 2005, published 2007).

The subject of the experiment is FGFR. Nature of the experiment: Kinase inhibition in cell-free enzymatic assay, FGFR. In kind it is biochemical. The conditions noted are these: 1 mM ATP.

The IC50 is the concentration needed to halve the response being measured. High values mean lower potency, low ones higher potency. `Cc1ccc(F)c(NC(=O)Nc2ccc(-c3cccc4[nH]nc(N)c34)cc2)c1` [RTKi, N-[4-(3-amino-1H-indazol-4-yl)phenyl]-N′-(2-fluoro-5-methylphenyl)urea] came in with an IC50 greater than 12.5 µM.
